Laboratory results as given in patent US7695930B2, “Method for the detection, identification and/or quantification of microoganisms with peptidase activity using phenoxazinone derivatives as enzyme substrates” (Biomerieux, priority 2003, dated 2010).

Tests used:
Type in all cases: cell-based
Conditions in all cases: 50 mg/l
Enterococcus faecalis [1] = assay: Alanyl-peptidase detection on agar medium (Example 13)
Experimental: (§1) The detection media were prepared by mixing 3.6 g of biogelytone (bioMérieux), 2.16 g of meat extract (bioMérieux), 1.26 g of malt extract (bioMérieux), 5.76 g of NaCl (Merck) and 10.8 g of agar (bioMérieux).
(§2) 720 ml of osmosed water were added to the powder, and the mixture was then melted in a waterbath at […]. The product was separated into two flasks, each of 360 ml. Autoclaving was carried out at 121° C. for 15 min and the product was cooled to […]. in a waterbath.
(§3) L-Alanyl-7-amino-4-methylcoumarin (Ala-AMC, Bachem) was then added to the first flask as a control, at the final concentration of 50 mg/l, and L-alanyl-9-aminobenzo[a]phenoxazin-5-one (Ala-ABP, substrate of the invention obtained in Example 2, in which the amino acid is L-alanine), was then added to the second flask at the final concentration of 25 mg/l.
(§4) The size of the colonies, their coloration and also the intensity of this coloration were noted.

Acinetobacter baumanii = assay: as above
Experimental: as §1, §2, §3, §4

[2] = tested on: Corynebacterium Pseudodiphteriticum; assay: as above
Experimental: as §1, §2, §3, §4

Enterobacter cloacae = assay: as above
Experimental: as §1, §2, §3, §4

Saccharomyces cerevisiae [3] = assay: as above
Experimental: as §1, §2, §3, §4

Listeria innocua = assay: as above
Experimental: as §1, §2, §3, §4

[4] = tested on: Staphylococcus saprophyticus; assay: as above
Experimental: as §1, §2, §3, §4

Candida albicans [5] = assay: as above
Experimental: as §1, §2, §3, §4

Escherichia coli [6] = assay: as above
Experimental: as §1, §2, §3, §4

Candida glabrata [7] = assay: as above
Experimental: as §1, §2, §3, §4

Candida krusei = assay: as above
Experimental: as §1, §2, §3, §4

Staphylococcus aureus = assay: as above
Experimental: as §1, §2, §3, §4

[8] = tested on: Staphylococcus epidermidis; assay: as above
Experimental: as §1, §2, §3, §4

Proteus mirabilis = assay: as above
Experimental: as §1, §2, §3, §4

Hafnia alvei = assay: as above
Experimental: as §1, §2, §3, §4

Pseudomonas aeruginosa = assay: as above
Experimental: as §1, §2, §3, §4

Serratia liquefaciens = assay: as above
Experimental: as §1, §2, §3, §4

Klebsiella pneumoniae [9] = assay: as above
Experimental: as §1, §2, §3, §4

Streptococcus agalactiae = assay: as above
Experimental: as §1, §2, §3, §4

Edwardsiella tarda = assay: as above
Experimental: as §1, §2, §3, §4

Bacillus subtilis = assay: as above
Experimental: as §1, §2, §3, §4

Serratia marcescens = assay: as above
Experimental: as §1, §2, §3, §4

Streptococcus pyogenes = assay: as above
Experimental: as §1, §2, §3, §4

Enterococcus faecium = assay: as above
Experimental: as §1, §2, §3, §4

Salmonella typhimurium = assay: as above
Experimental: as §1, §2, §3, §4

Enterococcus faecalis [10] = assay: Prolyl-peptidase detection on agar medium (Example 12)
Experimental: (§5) The detection media were prepared by mixing 1.68 g of yeast extract (bioMérieux), 1.4 g of biocase (bioMérieux), 1.26 g of malt extract (bioMérieux), 0.08 g of glucose (Merck) and 3.92 g of agar (bioMérieux).
(§6) 280 ml of osmosed water were added to the powder, and the mixture was then melted in a waterbath at 100° C. The product was separated into two flasks, each of 140 ml. Autoclaving was carried out at 121° C. for 15 min and the product was cooled to 50° C. in a waterbath.
(§7) L-Prolyl-7-amino-4-methylcoumarin (Pro-AMC, Bachem) was then added to the first flask as a control and L-prolyl-9-aminobenzo[a]phenoxazin-5-one (Pro-ABP, substrate of the invention obtained in Example 2, in which the amino acid is L-Proline) was then added to the second flask at the final concentration of 50 mg/l.
as §4

Saccharomyces cerevisiae [11] = assay: as above
Experimental: as §5, §6, §7, §4

Candida albicans [12] = assay: as above
Experimental: as §5, §6, §7, §4

Escherichia coli [13] = assay: as above
Experimental: as §5, §6, §7, §4

Candida glabrata [14] = assay: as above
Experimental: as §5, §6, §7, §4

Klebsiella pneumoniae [15] = assay: as above
Experimental: as §5, §6, §7, §4

Trichosporon beigelii = assay: as above; for color of the colony: key: B corresponds to fluorescent blue; R corresponds to pink
Experimental: as §5, §6, §7, §4

Candida guilliermondii = assay: as above; for color of the colony: key: B corresponds to fluorescent blue; R corresponds to pink
Experimental: as §5, §6, §7, §4

Candida tropicalis = assay: as above
Experimental: as §5, §6, §7, §4
Throughout, for color of the colony: key: B corresponds to fluorescent blue; R corresponds to pink.

Compound: Cc1cc(=O)oc2cc(NC(=O)[C@H](C)N)ccc12 [Ala-AMC, L-Alanyl-7-amino-4-methylcoumarin, reference compound]
- growth diameter (Enterococcus faecalis [1]; 24 h): 0.3 mm
- growth diameter (Enterococcus faecalis [1]; 48 h): 0.4 mm
- growth diameter (Acinetobacter baumanii; 24 h): 1.5 mm
- intensity of coloration, scale 0 to 4 (Acinetobacter baumanii; 24 h): 3
- growth diameter (Acinetobacter baumanii; 48 h): 1.5 mm
- intensity of coloration, scale 0 to 4 (Acinetobacter baumanii; 48 h): 3
- growth diameter ([2]; 24 h): 0 mm
- growth diameter ([2]; 48 h): 0.4 mm
- intensity of coloration, scale 0 to 4 ([2]; 48 h): 2
- growth diameter (Enterobacter cloacae; 24 h): 0.5 mm
- intensity of coloration, scale 0 to 4 (Enterobacter cloacae; 24 h): 3
- growth diameter (Enterobacter cloacae; 48 h): 0.8 mm
- intensity of coloration, scale 0 to 4 (Enterobacter cloacae; 48 h): 3
- growth diameter (Saccharomyces cerevisiae [3]; 24 h): 0.1 mm
- growth diameter (Saccharomyces cerevisiae [3]; 48 h): 0.2 mm
- growth diameter (Listeria innocua; 24 h): 0.2 mm
- growth diameter (Listeria innocua; 48 h): 0.3 mm
- growth diameter ([4]; 24 h): 0.3 mm
- growth diameter ([4]; 48 h): 0.4 mm
- growth diameter (Candida albicans [5]; 24 h): 0.3 mm
- growth diameter (Candida albicans [5]; 48 h): 0.5 mm
- intensity of coloration, scale 0 to 4 (Candida albicans [5]; 48 h): 2
- growth diameter (Escherichia coli [6]; 24 h): 1.7 mm
- intensity of coloration, scale 0 to 4 (Escherichia coli [6]; 24 h): 3
- growth diameter (Escherichia coli [6]; 48 h): 1.7 mm
- intensity of coloration, scale 0 to 4 (Escherichia coli [6]; 48 h): 3
- growth diameter (Candida glabrata [7]; 24 h): 0.2 mm
- growth diameter (Candida glabrata [7]; 48 h): 0.3 mm
- growth diameter (Candida krusei; 24 h): 0.7 mm
- growth diameter (Candida krusei; 48 h): 1.5 mm
- intensity of coloration, scale 0 to 4 (Candida krusei; 48 h): 0.25
- growth diameter (Staphylococcus aureus; 24 h): 0.5 mm
- growth diameter (Staphylococcus aureus; 48 h): 0.7 mm
- growth diameter ([8]; 24 h): 0.3 mm
- growth diameter ([8]; 48 h): 0.4 mm
- growth diameter (Proteus mirabilis; 24 h): 0.7 mm
- intensity of coloration, scale 0 to 4 (Proteus mirabilis; 24 h): 3
- growth diameter (Proteus mirabilis; 48 h): 0.7 mm
- intensity of coloration, scale 0 to 4 (Proteus mirabilis; 48 h): 3
- growth diameter (Hafnia alvei; 24 h): 0.7 mm
- intensity of coloration, scale 0 to 4 (Hafnia alvei; 24 h): 3
- growth diameter (Hafnia alvei; 48 h): 0.7 mm
- intensity of coloration, scale 0 to 4 (Hafnia alvei; 48 h): 3
- growth diameter (Pseudomonas aeruginosa; 24 h): 0.3 mm
- growth diameter (Pseudomonas aeruginosa; 48 h): 0.5 mm
- intensity of coloration, scale 0 to 4 (Pseudomonas aeruginosa; 48 h): 2
- growth diameter (Serratia liquefaciens; 24 h): 0.7 mm
- intensity of coloration, scale 0 to 4 (Serratia liquefaciens; 24 h): 3
- growth diameter (Serratia liquefaciens; 48 h): 1.3 mm
- intensity of coloration, scale 0 to 4 (Serratia liquefaciens; 48 h): 3
- growth diameter (Klebsiella pneumoniae [9]; 24 h): 1.2 mm
- intensity of coloration, scale 0 to 4 (Klebsiella pneumoniae [9]; 24 h): 3
- growth diameter (Klebsiella pneumoniae [9]; 48 h): 1.8 mm
- intensity of coloration, scale 0 to 4 (Klebsiella pneumoniae [9]; 48 h): 3
- growth diameter (Streptococcus agalactiae; 24 h): 0.1 mm
- growth diameter (Streptococcus agalactiae; 48 h): 0.2 mm
- growth diameter (Edwardsiella tarda; 24 h): 0.4 mm
- intensity of coloration, scale 0 to 4 (Edwardsiella tarda; 24 h): 3
- growth diameter (Edwardsiella tarda; 48 h): 0.5 mm
- intensity of coloration, scale 0 to 4 (Edwardsiella tarda; 48 h): 3
- growth diameter (Bacillus subtilis; 24 h): 1.7 mm
- growth diameter (Bacillus subtilis; 48 h): 1.8 mm
- growth diameter (Serratia marcescens; 24 h): 0.5 mm
- intensity of coloration, scale 0 to 4 (Serratia marcescens; 24 h): 3
- growth diameter (Serratia marcescens; 48 h): 0.7 mm
- intensity of coloration, scale 0 to 4 (Serratia marcescens; 48 h): 3
- growth diameter (Streptococcus pyogenes; 24 h): 0.1 mm
- growth diameter (Streptococcus pyogenes; 48 h): 0.2 mm
- intensity of coloration, scale 0 to 4 (Streptococcus pyogenes; 48 h): 3
- growth diameter (Enterococcus faecium; 24 h): 0.2 mm
- growth diameter (Enterococcus faecium; 48 h): 0.3 mm
- intensity of coloration, scale 0 to 4 (Enterococcus faecium; 48 h): 0.25
- growth diameter (Salmonella typhimurium; 24 h): 1.3 mm
- intensity of coloration, scale 0 to 4 (Salmonella typhimurium; 24 h): 3
- growth diameter (Salmonella typhimurium; 48 h): 1.5 mm
- intensity of coloration, scale 0 to 4 (Salmonella typhimurium; 48 h): 3

Compound: Cc1cc(=O)oc2cc(NC(=O)[C@@H]3CCCN3)ccc12 [Pro-AMC, L-Prolyl-7-amino-4-methylcoumarin, reference compound]
- growth diameter (Enterococcus faecalis [10]; 24 h): 0.8 mm
- growth diameter (Enterococcus faecalis [10]; 48 h): 1.2 mm
- growth diameter (Saccharomyces cerevisiae [11]; 24 h): 0.3 mm
- growth diameter (Saccharomyces cerevisiae [11]; 48 h): 1.7 mm
- growth diameter (Candida albicans [12]; 24 h): 1.2 mm
- intensity of coloration, scale 0 to 4 (Candida albicans [12]; 24 h): 2
- growth diameter (Candida albicans [12]; 48 h): 2.5 mm
- intensity of coloration, scale 0 to 4 (Candida albicans [12]; 48 h): 3
- growth diameter (Escherichia coli [13]; 24 h): 3 mm
- intensity of coloration, scale 0 to 4 (Escherichia coli [13]; 24 h): 0.5
- growth diameter (Escherichia coli [13]; 48 h): 3 mm
- intensity of coloration, scale 0 to 4 (Escherichia coli [13]; 48 h): 0.5
- growth diameter (Candida glabrata [14]; 24 h): 0.3 mm
- growth diameter (Candida glabrata [14]; 48 h): 1.7 mm
- growth diameter (Klebsiella pneumoniae [15]; 24 h): 2.5 mm
- intensity of coloration, scale 0 to 4 (Klebsiella pneumoniae [15]; 24 h): 0.25
- growth diameter (Klebsiella pneumoniae [15]; 48 h): 3 mm
- intensity of coloration, scale 0 to 4 (Klebsiella pneumoniae [15]; 48 h): 0.25
- growth diameter (Trichosporon beigelii; 24 h): 0.7 mm
- intensity of coloration, scale 0 to 4 (Trichosporon beigelii; 24 h): 0.25
- growth diameter (Trichosporon beigelii; 48 h): 3 mm
- intensity of coloration, scale 0 to 4 (Trichosporon beigelii; 48 h): 2
- growth diameter (Candida guilliermondii; 24 h): 0.4 mm
- growth diameter (Candida guilliermondii; 48 h): 1.8 mm
- intensity of coloration, scale 0 to 4 (Candida guilliermondii; 48 h): 3
- growth diameter (Candida tropicalis; 24 h): 1.2 mm
- growth diameter (Candida tropicalis; 48 h): 2 mm

Compound: L-prolyl-9-aminobenzo[a]phenoxazin-5-one [Pro-ABP]
- growth diameter (Enterococcus faecalis [10]; 24 h): 0.7 mm
- growth diameter (Enterococcus faecalis [10]; 48 h): 0.7 mm
- growth diameter (Saccharomyces cerevisiae [11]; 24 h): 0.5 mm
- growth diameter (Saccharomyces cerevisiae [11]; 48 h): 2 mm
- color of the colony (Candida albicans [12]; 24 h): R
- growth diameter (Candida albicans [12]; 24 h): 0.8 mm
- intensity of coloration, scale 0 to 4 (Candida albicans [12]; 24 h): 2
- color of the colony (Candida albicans [12]; 48 h): R
- growth diameter (Candida albicans [12]; 48 h): 2.5 mm
- intensity of coloration, scale 0 to 4 (Candida albicans [12]; 48 h): 2
- color of the colony (Escherichia coli [13]; 24 h): R
- growth diameter (Escherichia coli [13]; 24 h): 3 mm
- intensity of coloration, scale 0 to 4 (Escherichia coli [13]; 24 h): 0.25
- color of the colony (Escherichia coli [13]; 48 h): R
- growth diameter (Escherichia coli [13]; 48 h): 3 mm
- intensity of coloration, scale 0 to 4 (Escherichia coli [13]; 48 h): 3
- growth diameter (Candida glabrata [14]; 24 h): 0.4 mm
- growth diameter (Candida glabrata [14]; 48 h): 1.8 mm
- growth diameter (Klebsiella pneumoniae [15]; 24 h): 2 mm
- growth diameter (Trichosporon beigelii; 24 h): 0.5 mm
- color of the colony (Trichosporon beigelii; 48 h): R
- growth diameter (Trichosporon beigelii; 48 h): 1.8 mm
- intensity of coloration, scale 0 to 4 (Trichosporon beigelii; 48 h): 2
- growth diameter (Candida guilliermondii; 24 h): 0.3 mm
- color of the colony (Candida guilliermondii; 48 h): R
- growth diameter (Candida guilliermondii; 48 h): 1.8 mm
- intensity of coloration, scale 0 to 4 (Candida guilliermondii; 48 h): 2
- growth diameter (Candida tropicalis; 24 h): 1.2 mm
- growth diameter (Candida tropicalis; 48 h): 1.8 mm
